In series [1] the test system is Myzus persicae. As to the kind of experiment: Toxicity test on larval development on Ap3 feeding medium (larval mortality, weight of wingless adults). It is filed as in vivo. On the procedure: The goal is to quantify the toxic effect of 3,5-diCQ on the aphid throughout its larval development, namely 8 to 10 days for Myzus persicae at 19° C. The molecule is added at various concentrations to the Ap3 feeding medium.
(§1) The medium ([…]) is poured between two UV-sterilized Parafilm® membranes and drawn onto a cylindrical support made of PVC (h=1.5 cm, d=2 cm), under sterile conditions. On Day D0, 20 neonate larvae are placed inside the cylinder, which is then turned over and pressed onto a square of Parafilm®. The dishes are placed under dimmed light (16 hr day/8 hr night) and in an enclosure set at 19° C. The fixation percentage is recorded after 1 hour as a short-term phagostimulation indicator and in order to verify that no anomaly had occurred when the aphids were placed inside the cylinder. Larval mortality is noted daily at the end of the day. On Day D+3, the larvae are sampled and split up into two new dishes. On the day of their adult molt, the aphids that have reached the wingless adult stage are deposited successively onto a precision scale (d=0.01 mg) and the cumulative weights are recorded for each concentration of each tested molecule. Individual weights are calculated thereafter. The effects of a single molecule at all concentrations and the effects of the control medium are evaluated simultaneously during the same test. The tests are routinely performed in 3 repetitions.

Series [2] has as its system Macrosiphum euphorbiae. As to the kind of experiment: Selection test (phagorepulsive effect), first-stage larvae. The format is in vivo. The note with it: FIG. 23. An excerpt:
(§2) The goal is to evaluate the attractive or repulsive character of a candidate molecule, at various concentrations, either in relation to a control base medium or in relation to another substance. The base medium used, referred to as Ap3 (composition in the table in FIG. 10), was developed at the UMR INRA-INSA in Lyon in order to enable optimal development of the Acyrtosiphon pisum aphid species (Febvay et al. (1988) Canadian Journal of Zoology 66: 2149-2453). It also enables the development of Myzus persicae. This base medium may or may not be supplemented by the various phenolic acids tested. The aphid's selected behavior when placed in the presence of both media is studied inside a closed system where the insect has no alternative in order to feed itself but to select one of the two media. The device is shown in diagram form in FIG. 11.
(§3) The medium (35 μl) is poured between two Parafilm® membranes stretched onto an Eppendorf® cone. On a rack holding 6 experiment cages, a control medium is arranged opposite a test medium on each cage. […] The following morning, the number of aphids fixed on each medium is recorded. […] A phagostimulation index, representing the degree of desire for the aphid in the test medium, is calculated as follows: Phagostimulation index=(Test no.−Control no.)/Total no., wherein: […]

Series [3] concerns Acyrtosiphon pisum. The series is described as above. The format is in vivo, Acyrthosiphon pisum. The note with it: FIG. 21.
Excerpt: as §2, §3

The test system of another series is chewing insects. The settings on record: Tamura et al. 2004; Mullin et al. 1991; cited from earlier work.
Series [4] has as its system Macrosiphum euphorbiae. Description: Toxicity test during larval development. It is filed as in vivo. The note with it: FIG. 24. The protocol:
as §1
(§4) Regarding the toxicity tests, no changes were made to the protocol for tests on Macrosiphum euphorbiae. However, given the size and sensitivity to stress of Acyrthosiphon pisum, the number of individuals per dish was changed to 10, the number of repetitions per tested dose was changed to 4, and no change was made to the medium during the test, as excessive disturbance of the aphids would have resulted from doing so.

In series [5] the test system is Acyrtosiphon pisum. Description: Toxicity test during larval development. The format is in vivo. The note with it: FIG. 22. On the procedure: as §1, §4
For series [6], the system named is Myzus persicae. As to the kind of experiment: Selection test between two media (phagostimulation index, repulsivity). It is filed as in vivo. The settings on record: for concentration at which significantly repulsive: against Ap3 control medium; for concentration at which the repulsive effect (negative phagostimulation index) is significant: tested against Ap3 medium, lowest concentration tested 0.25 mM.
Excerpt: The method used is the one developed by Yvan Rahbé (Rahbé & Febvay (1993) Entomologia Experimentalis et Applicata 67: 149-160; Chen (1996) Thesis, Institut National des Sciences Appliquées, Lyon, France: 158 pp.) in the context of research on the chemical determinants of plant resistance to various aphid species (Aphis gossypii, Acyrthosiphon pisum), and adapted to the green peach aphid, Myzus persicae.
as §2
The medium (35 μl) is poured between two Parafilm® membranes stretched onto an Eppendorf® cone. On a rack holding 6 experiment cages, a control medium is arranged opposite a test medium on each cage. The repetitions of a single modality (control medium or test medium) are arranged in alternating fashion along the rack, in order to prevent any systematic bias when the aphids are placed inside. At the end of the day, six aphid larvae (second or third stage) are placed inside each of the cages of one rack. Next, the racks are inserted into a black box placed inside a climate-controlled test chamber at 19° C. for 15 hours. This passage into darkness stabilizes the larvae's fixation more quickly. The following morning, the number of aphids fixed on each medium is recorded. The tests are performed in routine fashion on 24 selection repetitions (4 racks with 6 cages each). A phagostimulation index, representing the degree of desire for the aphid in the test medium, is calculated as follows: Phagostimulation index=(Test no.−Control no.)/Total no., wherein:
Test no.=Number of aphids fixed on the test medium,
Control no.=Number of aphids fixed on the control medium,
Total no.=Total number of fixed aphids.
Consequently, the value of the index ranges from −1 to 1. A negative index means that the test medium is repulsive in relation to the control medium, and a positive index means that the test medium is attractive. The hypothesis that the effect of the test medium is identical to that of the control medium is examined by the Wilcoxon rank test.
The tested phenolic substances other than 3,5-diCQ are of commercial origin apart from the caffeic acid methyl ester, which was synthesized. The molecules were characterized by mass spectrometry and proton nuclear magnetic resonance. The amount and stability of the dissolved molecules are monitored by HPLC after the molecules are dissolved in the Ap3 medium, at the beginning and at the end of the experiment.

Setting [7] is: FIG. 15, range 0.03125 to 1 mM, against Ap3.

As for `O=C(/C=C/c1ccc(O)c(O)c1)O[C@@H]1C[C@](OC(=O)/C=C/c2ccc(O)c(O)c2)(C(=O)O)C[C@@H](O)[C@H]1O` [1,5-diCQ, 1,5-dicaffeoylquinic acid], the “toxic effect on larval development (in words)” value in the series with Myzus persicae [1] (in vivo) was “toxic activity”.

By mortality is commonly meant the share of the test organisms that died. A high value points to fewer survivors. With `O=C(/C=C/c1ccc(O)c(O)c1)O[C@@H]1CC(O)(C(=O)O)C[C@@H](OC(=O)/C=C/c2ccc(O)c(O)c2)C1O` (stereo partly drawn) [3,5-diCQ, 3,5-dicaffeoylquinic acid], in the series with Macrosiphum euphorbiae [2], the “dose starting at which highly significant repulsive effect” value is given as 0.125 mM. The “dose starting at which significant repulsive effect” value with Acyrtosiphon pisum [3] is reported as 0.03125 mM. Besides, the “effect on feeding of chewing insects (in words)” value with chewing insects is on record as “phagostimulating effect”. Further, in the series with Myzus persicae [1] (0.03125 mM), the “toxic effect at 0.03125 mM (in words)” value is listed as “no toxic or repulsive effect”. Besides, the “reaching the wingless adult stage” value in the series on Myzus persicae [1] (1 and 2 mM concentrations) is on record as “no aphids reached the wingless adult stage”. Besides, in the series with Myzus persicae [1] (FIG. 16, at 2 mM), the larval mortality is on record as about 100%. Moreover, the “dose starting at which significant depressive effect on weight of wingless adults” value with Myzus persicae [1] (FIG. 17) is given as 0.25 mM. The “dose with significant depressive effect on weight of wingless adults” value with Myzus persicae [1] (FIG. 20) is recorded as 0.5 mM. In addition, the “toxic effect on larval development (in words)” value in the series with Myzus persicae [1] (in vivo) is “high mortality”; with Myzus persicae [1] (in vivo, listed as 3,5-dicaffeoylquinic acid), “toxic activity”. For the same compound, the mortality in the series on Macrosiphum euphorbiae [4] (0.25 mM dose, within 6 days) was about 100%; in the series on Macrosiphum euphorbiae [4] (0.5 and 1 mM doses, within 3 to 7 days) it was 100%; in the series with Acyrtosiphon pisum [5] (starting at 0.03125 mM, within 2 days), “exceeds 50%”; with Acyrtosiphon pisum [5] (starting at 0.25 mM, within 4 days), 100%. Besides, in the series on Myzus persicae [6] (0.03125 mM), the “repulsive effect at 0.03125 mM (in words)” value was “no toxic or repulsive effect”. Besides, the “concentration at which significantly repulsive” value with Myzus persicae [6] (FIG. 13) was 0.125 mM. The “choice between 3,5-diCQ and chlorogenic acid at a single molarity” value with Myzus persicae [6] (FIG. 13, tested against each other, at 0.125 mM) is “systematically selects CA rather than 3,5-diCQ”. Besides, the “repulsive effect of 0.5 mM versus chlorogenic acid at 2 mM” value with Myzus persicae [6] (FIG. 14, pH 7.5, CA four times higher) was “remains repulsive”. Moreover, in the series on Myzus persicae [6] (setting [7]), the “dose with highly significant repulsive effect” value is 0.125 mM. In addition, the “minimum concentration at which repulsive effect is detectable” value in the series with Myzus persicae [6] (in vivo) is 125 µM; in the series on Myzus persicae [6] (same value converted), 64.5 mg/L. Also, the “repulsive effect / activity (in words)” value with Myzus persicae [6] (in vivo) is “repulsive activity”.

With `O=C(/C=C/c1ccc(O)c(O)c1)O[C@H]1[C@H](O)C[C@](O)(C(=O)O)C[C@H]1OC(=O)/C=C/c1ccc(O)c(O)c1` [4,5-diCQ, 4,5-dicaffeoylquinic acid], the “dose with significant depressive effect on weight of wingless adults” value in the series with Myzus persicae [1] (FIG. 20) is recorded as 0.25 mM. For the same compound, the “toxic effect on larval development (in words)” value in the series with Myzus persicae [1] (in vivo) is reported as “toxic activity”. Moreover, in the series on Myzus persicae [6] (setting [7]), the “dose starting at which significant repulsive effects were detected” value is 0.03125 mM and the “dose with highly significant repulsive effect” value is 0.125 mM. The “repulsive effect / activity (in words)” value with Myzus persicae [6] (in vivo) is listed as “repulsive activity”.

Consider `O=C(O)/C=C/c1ccc(O)cc1` [Para-coumaric acid, para-coumaric acid, reference compound], for which, in the series on Myzus persicae [6] (FIG. 12, concentration range tested, against Ap3 medium), the “repulsive effect (in words)” value was “no repulsive effect”.

As for `O=C(/C=C/c1ccc(O)c(O)c1)O[C@@H]1C[C@](O)(C(=O)O)C[C@@H](O)[C@H]1O` [chlorogenic acid, 5-caffeoylquinic acid, reference compound], in the series with Myzus persicae [1] (FIG. 18), the “effect on weight of wingless adults (in words)” value is on record as “probiotic effect”. In addition, in the series with Myzus persicae [1] (in vivo), the larval mortality was at most 10% and the “toxic effect on larval development (in words)” value is “no negative effects”. The “concentration at which the repulsive effect (negative phagostimulation index) is significant” value with Myzus persicae [6] (FIG. 12) was found to be 0.5 mM. In addition, the “concentration at which significantly repulsive” value in the series with Myzus persicae [6] (FIG. 13) was found to be 0.25 mM.

Take `O=C(/C=C/c1ccc(O)c(O)c1)O[C@@H]1C[C@@](OC(=O)/C=C/c2ccc(O)c(O)c2)(C(=O)O)C[C@@H](O)[C@@H]1O` [cynarin]: the “effect on the aphids' weights (in words)” value with Myzus persicae [1] (FIG. 20, at the 0.25 mM dose) is “no effect”. In addition, the “concentration at which the repulsive effect (negative phagostimulation index) is significant” value with Myzus persicae [6] (FIG. 12) came to 1 mM.

The values are drawn from patent publication US8921420B2, “Method for preparing dicaffeoylquinic acids and use thereof in combating aphids” (Institut National de la Recherche Agronomique, priority 2008, dated 2014).
